{"source": "patent US20240139186A1", "about": "“METHODS OF TREATING HIV” (Janssen Sciences Ireland Unlimited Company, priority 2019, published 2024)", "origin": "cited, not measured here", "details": "adult and pediatric participants receiving abacavir in clinical studies", "data": [{"smiles": "Nc1nc(NC2CC2)c2ncn([C@H]3C=C[C@@H](CO)C3)c2n1", "note": "[abacavir]", "values": [{"measurement": "hypersensitivity reactions reported, proportion of participants", "value": "approximately 5%"}]}]}
